The values that follow come from patent EP1276895B1, “METHOD FOR THE IDENTIFICATION OF ACTIVE SITE PROTEASE INACTIVATORS” (THE UNIVERSITY OF GEORGIA RESEARCH FOUNDATION, INC., priority 2000, dated 2001).

Assay [1] deals with purified cysteine protease of Taenia solium. In words: Human IgG degradation inhibition test, western blot (Step IV), purified enzyme. The assay is classed as biochemical. As to conditions: 18 hrs, 37°C, E 64 10^-6 M, vehicle 10^-3 M. The method, then:
(§1) To conduct this assessment, a western blot was performed. IgG digestion was detected by incubating 20 ul of T. solium purified enzyme or T. so/ium extract with 1 ug of human IgG (Sigma, St. Louis) in a final volume of 100 ul of assay buffer. Exogenous thiol activation was assessed by incubating the assay in the presence or absence of cysteine. The catalytic class of the IgG protease was determined by pre-incubating the following proteinase inhibitors at their active concentrations, with the enzyme: E 64 (10^-6 M, cysteine proteinases), phenylmethylsulfonyl fluoride (PMSF) (10^-3 M, serine proteinases), pepstatin A (10^-6 M, aspartic proteinases), and 1,10 phenanthroline (10^-3 M, metalloproteinases), and the vehicle, Mu-Leu-Tyr-AFC (10^-3 M). After addition of IgG, the assay was incubated overnight (37°C, 18 hrs). Subsequently, 100 ul of the mixture was boiled in sodium dodecyl sulfate polyacrylamide gel electrophoresis (SDS-PAGE) sample buffer with 2% 2-mercaptoethanol, separated by 12.5% SDS-PAGE, and blotted onto a polyvinylidene difluoride membrane. Tris buffered saline containing 0.1% bovine serum albumin and 0.05% Tween 20 (TBS-BSA) was used to block nonspecific binding. […]

Assay [2] has as its system crude mix. Briefly: Human IgG degradation inhibition test, western blot (Step IV), crude mix. The following applies: crude mix compared with purified proteinase; data not shown. Format: biochemical, Taenia solium. The method, then:
as §1

Starred links: 1 amine or outer side, 2 acyl side, 3 side chain; linkers in the order of their positions; H or OH if unused. Residues, ends and D or L forms follow the SMILES beside them. *: point of attachment. AFC = O=c1cc(C(F)(F)F)c2ccc(N*)cc2o1; Suc = O=C(CCC(=O)[*:2])[*:1]

For `CC(C)C[C@H](NC(=O)CCC(=O)O)C(=O)N[C@@H](Cc1ccc(O)cc1)C(=O)Nc1ccc2c(C(F)(F)F)cc(=O)oc2c1` [Suc-Leu-Tyr-AFC] (Suc-Leu-Tyr-{AFC}), the “inhibition of cleavage of human IgG” value in assay [1] is given as “inhibit”. Also, the “concentration required for inhibition of IgG cleavage” value in assay [2] was “greater”.
